Experimental data from patent EP4461367A1, “NEW TERNATIN-TYPE CYCLOPEPTIDES FOR USE IN THERAPY” (Centre National de la Recherche Scientifique, priority 2023, dated 2024).
Starred links: 1 amine or outer side, 2 acyl side, 3 side chain; linkers in the order of their positions; H or OH if unused. Non-standard residues stand in square brackets, D forms with d. Residues, ends and D or L forms follow the SMILES beside them. ξ: configuration not given here. X5 = CC(CC(C(=O)[*:2])N(C)[*:1])C(C)OC=O; X2 = CC(COC=O)CC(C(=O)[*:2])N(C)[*:1]; X4 = CC(O)C(C)CC(C(=O)[*:2])N(C)[*:1]; ξNle(4-Me,5-ene) = C=CC(C)CC(N)C(=O)O; X1 = CCC(C)CC(C(=O)[*:2])N(C)[*:1]; X3 = CC(CO)CC(C(=O)[*:2])N(C)[*:1]; ξLeu(3ξ-OH) = CC(C)C(O)C(N)C(=O)O; NMeA = CN[CH](C)C(=O)O

Columns and labels:
[1] = Cellular cytotoxicity, MTT assay, Vero E6; assay type: cell-based; conditions: african green monkey, Vero E6 cells, 48 h of treatment
Method: (§1) Cytotoxicity of the compounds of formula (I) was evaluated on A549, Vero E6 and Huh7 cells by measuring the mitochondrial activity after 48 h of treatment by an MTT assay.

RRV^GFP = test: microbe, parasite or virus in culture; conditions: Ross River virus, Vero, 18 h, read-out: IC50 against RRV
Method: At 18 h post-infection, the percentage of GFP expressed by the cells is measured by FACS (Flow cytometric analysis of GFP fluorescence). Data represent the means ± SD of four independent experiments performed in triplicate and are expressed as relative values compared to mock-treated control.

ZIKV^GFP [2] = test: ZIKV^GFP antiviral assay, GFP by FACS at 24 h post-infection; assay type: cell-based; conditions: Zika virus
Description: The antiviral activity of the compounds (C1 and C3 to C7) of formula (I) has been evaluated against Zika virus as representative of flaviviruses. Vero, A549 or Huh7.5 cells were infected with ZIKV^GFP (MOI=2) and simultaneously treated with increasing concentrations of the compounds of formula (I) (C1 and C3 to C7) or ternatin (ten-fold serial dilutions of considered compound).

DENV = DENV antiviral assay, infected cells by FACS at 72 h post-infection; assay type: cell-based; conditions: Dengue virus; Vero cells, DENV MOI = 0.1, 72 h post-infection, Figure 9C; read-out: IC50 against DENV
Method: At 72 h post-infection, the percentage of DENV-infected cells was measured by FACS assay.

ZIKV^GFP [3] = test: Time of drug-addition assay, ZIKV^GFP in A549 cells; conditions: 10 nM, Figure 11C
Method: Time of drug-addition assay aims at characterizing the antiviral action of the compounds of the invention on various stages of the dissecting virus infectious cycle.
Compound C1 (10 nM) or vehicle were used for treatment of A549 cells for viral inactivation assay, concurrently to virus input (Entry), after virus exposure (Replication) with specific washing steps and incubation periods (Figure 11A).
The data represent the means ± SD of four independent experiments performed in triplicate, and are expressed as relative values compared to vehicle-treated cells.

SARS-CoV-2 [4] = test: Preclinical model in human primary bronchial epithelial cells (Mucilair), viral RNA by qRTPCR; assay type: cell-based; conditions: Severe acute respiratory syndrome coronavirus 2, Primary bronchial epithelial cell, viral RNA at 72 h post-inoculation, Figure 12, read-out: inhibition of the infection by SARS-CoV-2
Method: The compound C1 was evaluated on a preclinical model in human primary bronchial epithelial cells (Mucilair) against SARS-CoV-2 (T. Meunier et al., Antimicrob Agents Chemother. 2022 Feb; 66(2): e01581-21). Mucilair cells were inoculated with SARS-CoV-2 in the presence of compound C1 at 0.75, 7.5 or 75 pM for 1 h at the apical side. Inoculum was removed 1 h post-infection. At 72 h post-inoculation, cells were lysed to extract RNA. Viral RNA was quantified by qRTPCR. For RNA quantification, data are expressed relative to the Mock-treated control.

[5] = Cellular cytotoxicity, MTT assay, Huh7; assay type: cell-based; conditions: human, Huh7 cells, 48 h of treatment
Method: as §1

HCoV-229E-Luc = test: microbe, parasite or virus in culture; assay type: cell-based, human alphacoronavirus HCoV-229-E; conditions: Alphacoronavirus, Huh-7, 24 h, read-out: IC50 (nM) Huh7
SARS-CoV-2 [6] = test: SARS-CoV-2 viral progeny, PFU assay (plaque-forming assay) of Huh7 supernatant; assay type: cell-based; conditions: Huh7 cells, MOI=0.01, 24 h post-infection, at 0.6 nM, Figure 10B
Method: The compound C1 has been tested on the betacoronavirus SARS-CoV-2. Huh7 cells were infected with SARS-CoV-2 (MOI=0.01) and simultaneously treated with increasing concentrations of the compound of formula (I). At 24 h post-infection, cell supernatant was recovered for viral titration (Figure 10B). Viral progeny was measured by a PFU assay (plaque-forming assay) by quantifying infectious particles in the supernatant (PFU/mL).

[7] = Cellular cytotoxicity, MTT assay, A549; assay type: cell-based; conditions: human, A549 cells, 48 h of treatment
Method: as §1

ZIKV^GFP [8] = test: ZIKV^GFP antiviral assay, GFP by FACS at 48 h post-infection; assay type: cell-based; conditions: Zika virus, Vero, read-out: IC50 against ZIKV
Description: Vero cells were infected with ZIKV^GFP (MOI=2) and simultaneously treated with increasing concentrations of the compound C1 or ternatin (ten-fold serial dilutions of considered compound).

[9] = A549, 24 h, read-out: IC50 (nM) A549
[10] = Huh7.5, 24 h, read-out: IC50 (nM) Huh7.5
[11] = Vero, 24 h, read-out: IC50 (nM) Vero

Method for adult zebrafish: (D) Total distance travelled at 1 day post injection. […] After injection, fish were observed during 5 days. Statistical analyses were conducted using unpaired t-test comparisons, n = 5 (n: number of fishes per group).

Structure (SMILES) | CC50 at 48 h [1] [nM] | IC50 (RRV^GFP) [nM] | IC50 (ZIKV^GFP [2]; [9]) [nM] | IC50 (ZIKV^GFP [2]; [10]) [nM] | IC50 (ZIKV^GFP [2]; [11]) [nM] | IC50 (DENV) [nM] | stage of viral infection targeted (ZIKV^GFP [3]) | toxicity in adult zebrafish (adult zebrafish; at the effective antiviral dose, injected 10 ng/µL, observed during 5 days) | fine-tune locomotor activity of zebrafish (adult zebrafish; injected with 10 ng/µL, 1 day post injection, Figure 13) | inhibition at 75 pM (SARS-CoV-2 [4]) [%] | CC50 at 48 h [5] [nM] | IC50 (HCoV-229E-Luc) [nM] | reduces SARS-CoV-2 viral progeny production (SARS-CoV-2 [6]) [logs] | CC50 at 48 h [7] [nM] | IC50 (ZIKV^GFP [8]) [nM]
C=CC(C)CC1NC(=O)C(CC(C)C)N(C)C(=O)C(C)N(C)C(=O)C(C(C)CC)NC(=O)C(C(O)C(C)C)NC(=O)C(C)N(C)C(=O)C(C)N(C)C1=O (stereo not shown) [Compound C1, comptonellin A] | 200 | 57 | 4 | 2 | 9 | 42 | targets late stages of viral infection | no toxicity | did not impair fine-tune locomotor activity | > 98 | 4.9 | 5 | 3 | 11.2 | 60
C=CC(C)CC1NC(=O)C(CC(C)CC)N(C)C(=O)C(C)N(C)C(=O)C(C(C)CC)NC(=O)C(C(O)C(C)C)NC(=O)C(C)N(C)C(=O)C(C)N(C)C1=O (stereo not shown) [Compound C3, comptonellin C] (cyclo([X1][ξNle(4-Me,5-ene)][NMeA][NMeA][ξLeu(3ξ-OH)]I[NMeA]); configuration not given here) | 412 | – | 0.5 | 0.003 | 9 | – | – | – | – | – | – | 2.4 | – | – | –
C=CC(C)CC1NC(=O)C(CC(C)CO)N(C)C(=O)C(C)N(C)C(=O)C(C(C)CC)NC(=O)C(C(O)C(C)C)NC(=O)C(C)N(C)C(=O)C(C)N(C)C1=O (stereo not shown) [Compound C4, comptonellin D] (cyclo([X3][ξNle(4-Me,5-ene)][NMeA][NMeA][ξLeu(3ξ-OH)]I[NMeA]); configuration not given here) | 3760 | – | 26 | 12 | 163 | – | – | – | – | – | 9.35 | 96.8 | – | 52.8 | –
C=CC(C)CC1NC(=O)C(CC(C)C(C)O)N(C)C(=O)C(C)N(C)C(=O)C(C(C)CC)NC(=O)C(C(O)C(C)C)NC(=O)C(C)N(C)C(=O)C(C)N(C)C1=O (stereo not shown) [Compound C5, comptonellin E] (cyclo([X4][ξNle(4-Me,5-ene)][NMeA][NMeA][ξLeu(3ξ-OH)]I[NMeA]); configuration not given here) | 4810 | – | 40 | 11 | 244 | – | – | – | – | – | 31.9 | 98.5 | – | 99.8 | –
C=CC(C)CC1NC(=O)C(CC(C)COC=O)N(C)C(=O)C(C)N(C)C(=O)C(C(C)CC)NC(=O)C(C(O)C(C)C)NC(=O)C(C)N(C)C(=O)C(C)N(C)C1=O (stereo not shown) [Compound C6, comptonellin F] (cyclo([X2][ξNle(4-Me,5-ene)][NMeA][NMeA][ξLeu(3ξ-OH)]I[NMeA]); configuration not given here) | 3530 | – | 13 | 9 | 115 | – | – | – | – | – | 22.1 | 36.8 | – | 41 | –
C=CC(C)CC1NC(=O)C(CC(C)C(C)OC=O)N(C)C(=O)C(C)N(C)C(=O)C(C(C)CC)NC(=O)C(C(O)C(C)C)NC(=O)C(C)N(C)C(=O)C(C)N(C)C1=O (stereo not shown) [Compound C7, comptonellin G] (cyclo([X5][ξNle(4-Me,5-ene)][NMeA][NMeA][ξLeu(3ξ-OH)]I[NMeA]); configuration not given here) | 379 | – | 46 | 16 | 176 | – | – | – | – | – | 93.9 | 15 | – | 80.6 | –
COc1cc(-c2oc3c(OC)c(OC)cc(O)c3c(=O)c2OC)ccc1O [Ternatin, ternatin] | – | 977 | 92 | 23 | 584 | 493 | – | – | – | – | – | 157 | – | – | 860
